Measurements: patent US9044491B2, “Method for improving blood flow using stilbenoid derivatives” (The Board of Trustees of the University of Arkansas, priority 2010, dated 2015)

What was measured:
CB1 receptors = format: biochemical, mouse; details: 10 μM compound, 30 min at 30° C.
[1] = system: cecal ligation and puncture model (CLP) of sepsis-induced renal injury; assay: Murine CLP model of sepsis, tRes 30 mg/kg (Example 5); format: in vivo, mouse; details: 30 mg/kg i.p. 30 min prior to and 6 hr post CLP; 18 hr post CLP
Text: Control (sham) mice underwent surgery but not CLP. Each treatment group contained 4-5 mice. Renal ONOO^− generation (rhodamine fluorescence) and renal peritubular capillary perfusion were quantified using intravital video microscopy (IVVM) on anesthetized mice in each of the treatment groups.

[2] = system: cecal ligation and puncture model (CLP); assay: RNS generation in renal tubules after CLP (rhodamine IVVM, anti-nitrotyrosine staining); format: in vivo, mouse; details: for rhodamine fluorescence (RNS generation in renal tubules): 18 hours after CLP
Protocol: The reactive nitrogen species peroxynitrite preferentially oxidizes DHR to fluorescent rhodamine that is visualized at 535 nm excitation and 590 nm emission. Still images exposed for 500 ms were captured from fields of view used to determine capillary perfusion. Fluorescence intensity was measured by ImageJ (National Institutes of Health, Bethesda, Md.) after first subtracting background fluorescence intensity. Representative images of fluorescence are shown in FIG. 10, panels (A)-(C), and the quantification of fluorescence is shown in FIG. 10 panel D. Data are expressed as arbitrary units/μg. CLP increased the generation of RNS in the renal tubules compared to Control (Sham). […] Antigens were unmasked using 10 mM citrate (pH 6.0) and 95° C. for 30 min. Gill's hematoxylin II was used as a counterstain. […] FIG. 12 (E)-(G) show nitrotyrosine staining. After CLP, nitrotyrosine was intense in renal tubules but not in glomeruli. Two doses of tRes blocked formation of nitrotyrosine adducts.

[3] = system: CLP or Control (Sham) mice; assay: Mean arterial pressure and heart rate by biotelemetry; format: in vivo, mouse
Protocol: Mean arterial pressure (MAP) and heart rate (HR) were monitored continuously in conscious mice using biotelemetry. Transmitters (Data Sciences International, Minneapolis Minn.) were implanted into the carotid artery under isoflurane anesthesia and the animals were allowed to recover for 48 h. Mice were re-anesthetized with isoflurane and received CLP or Control (Sham) surgery. Cardiovascular parameters were recorded for 10 s every 5 min.

[4] = system: CLP or Control (Sham) mice; assay: Renal arterial blood flow by Doppler flow probe; format: in vivo, mouse
Text: Under isoflurane anesthesia, the right kidney was exposed by flank incision and the renal artery and vein were carefully dissected from surrounding tissue with Dumont-5 forceps. The renal artery was isolated from the vein and a Transonic Systems (Ithaca, N.Y.) 0.5 PSL renal artery Doppler flow probe was positioned around the renal artery. The probe was calibrated in water using the zero and scale settings on the TS420 flowmeter (Transonic Systems). […] Body temperature was maintained at 36 to 37° C. with a heating lamp. Data were expressed in ml/min/g kidney weight.
Renal blood flow was measured essentially as described above in Example 10 following CPL surgery or control treatment (no surgery). CPL-treated mice were administered 10 mg/kg of resveratrol, 2.5 mg/kg of resveratrol-3-sulfate, or vehicle. […] In fact, resveratrol-3-sulfate produced the same degree of reversal at 25% of the dose of resveratrol.

CLP mice [5] = assay: Histology of renal tissue (PAS staining) after CLP; format: in vivo, mouse; details: two-dose regimen
Text: Renal tissue was also stained with periodic acid-Schiff staining to show the amount of injury to the tissue. The periodic acid-Schiff (PAS) stained sections were scored in a blinded, semi-quantitative manner. For each animal, at least 10 high power (400×) fields were examined. […] Representative PAS-stained sections are shown in FIG. 15, panels (A)-(C) 200× magnification and the tissue scores are shown in (D). CLP caused mild morphological changes characterized by […], cast formation, vacuolization, and tubule dilation. These changes were prevented by the two-dose regimen of tRes.

CLP mice [6] = assay: Survival study after CLP; format: in vivo, mouse; details: 10 mg/kg at 6, 12, and 18 hours following CLP, monitored for 48 h
human UGT1A1 = target: T1, human UGT1A1 (Homo sapiens, UniProt P22309); details: 250 μM
T1 sequence (P22309 26-533): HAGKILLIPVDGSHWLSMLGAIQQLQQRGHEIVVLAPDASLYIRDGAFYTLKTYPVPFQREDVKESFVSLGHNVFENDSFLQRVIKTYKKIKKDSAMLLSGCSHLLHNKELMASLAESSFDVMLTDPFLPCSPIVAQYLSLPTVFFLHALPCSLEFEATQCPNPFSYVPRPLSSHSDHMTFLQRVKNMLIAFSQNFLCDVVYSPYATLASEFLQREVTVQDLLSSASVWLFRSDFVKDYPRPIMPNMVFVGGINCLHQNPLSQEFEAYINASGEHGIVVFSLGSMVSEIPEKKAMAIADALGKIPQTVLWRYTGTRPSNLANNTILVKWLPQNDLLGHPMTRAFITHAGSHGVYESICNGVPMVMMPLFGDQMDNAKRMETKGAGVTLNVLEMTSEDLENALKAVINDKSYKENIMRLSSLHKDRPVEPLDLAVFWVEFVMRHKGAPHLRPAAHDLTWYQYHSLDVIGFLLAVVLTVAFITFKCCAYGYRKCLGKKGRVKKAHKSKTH
Protocol: (§1) Eight human recombinant UGT1A isoforms (UGT1A1, 1A3, 1A4, 1A6, 1A7, 1A8, 1A9, and 1A10; 5 μg) expressed as His-tag proteins in baculovirus-infected Sf9 insect cells and human liver microsomes (from one donor; HL2; 50 μg) and human intestinal microsomes (from two donors; HI36 and HI41; 50 μg) were evaluated for their ability to glucuronidate these four compounds. The concentrations of the substrate and co-substrate (i.e., UDP-GlcUA) were 250 μM and 4 mM, respectively. Glucuronidation products were analyzed by HPLC and LCMS/MS.
(§2) The kinetic constants of the glucuronidation reactions using recombinant human UGT1A1 and UGT1A10 were determined by measuring the enzyme activity in the presence of increasing concentrations of substrate (see FIG. 2).

human UGT1A10 = target: T2, human UGT1A10 (Homo sapiens, UniProt Q9HAW8); details: 250 μM
T2 sequence (Q9HAW8 26-530): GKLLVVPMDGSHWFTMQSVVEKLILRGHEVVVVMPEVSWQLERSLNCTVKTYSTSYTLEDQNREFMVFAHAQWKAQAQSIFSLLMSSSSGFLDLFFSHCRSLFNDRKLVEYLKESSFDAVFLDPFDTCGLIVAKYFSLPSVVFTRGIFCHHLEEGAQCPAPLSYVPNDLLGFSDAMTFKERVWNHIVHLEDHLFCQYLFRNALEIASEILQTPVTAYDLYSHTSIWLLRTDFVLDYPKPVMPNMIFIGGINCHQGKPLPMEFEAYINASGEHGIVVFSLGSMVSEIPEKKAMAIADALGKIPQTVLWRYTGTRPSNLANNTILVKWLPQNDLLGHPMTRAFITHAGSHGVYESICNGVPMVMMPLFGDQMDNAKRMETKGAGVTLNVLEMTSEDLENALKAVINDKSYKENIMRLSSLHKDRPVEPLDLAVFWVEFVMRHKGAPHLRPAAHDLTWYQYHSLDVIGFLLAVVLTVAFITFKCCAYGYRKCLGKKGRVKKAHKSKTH
Protocol: as §1, §2

[7] = CLP mice, 3, 10, or 30 mg/kg i.p. at 5.5 hours

Question: Which “basal G-protein activity” value (CB1 receptors) does the source give for Oc1ccc(/C=C/c2cc(O)cc(O)c2)cc1 [tRes, trans-resveratrol] here?
Answer: little effect

Question: What about the “RNS generation in the kidney” value [1] of the same compound?
Answer: blocked

Question: And the renal capillary perfusion [1]?
Answer: preserved

Question: What about the “rhodamine fluorescence (RNS generation in renal tubules)” value ([2]; second dose at 12 hours) of the same compound?
Answer: completely blocked

Question: And the “rhodamine fluorescence (RNS generation in renal tubules)” value ([2]; single dose at 6 hours)?
Answer: partially, but significantly reduced

Question: And the “formation of nitrotyrosine adducts” value ([2]; CLP, two doses)?
Answer: blocked

Question: What about the “heart rate (HR)” value [3, 7] of the same compound?
Answer: no effect

Question: What about the “mean arterial pressure (MAP)” value [3, 7] of the same compound?
Answer: no effect

Question: What about the “heart rate (HR)” value ([3]; Control (Sham) mice) of the same compound?
Answer: slightly increase

Question: And the “Renal Arterial Blood Flow (RBF)” value ([4]; CLP mice at 6 hours, 10 mg/kg via the penile vein at 5.5 hours)?
Answer: 2.6 ± 0.6 mL/min/g

Question: And the renal blood flow ([4]; CPL-treated mice, 10 mg/kg (Example 15))?
Answer: increased blood flow

Question: What about the “Renal Arterial Blood Flow (RBF)” value ([4]; Control (Sham) mice, 10 mg/kg) of the same compound?
Answer: without effect

Question: What about the “CLP-induced morphological changes of renal tissue (PAS)” value (CLP mice [5]) of the same compound?
Answer: prevented

Question: What about the “survival in CLP mice” value (CLP mice [6]) of the same compound?
Answer: significantly improve survival

Question: What about the “glucuronide formation by UGT1A1” value (human UGT1A1) of the same compound?
Answer: glucuronidated to 3-O— and 4′-O-Glucs

Question: What about the “glucuronide formation by UGT1A10” value (human UGT1A10) of the same compound?
Answer: glucuronidated to 3-O— and 4′-O-Glucs
